# According to US5840740A, “Aminosterol compounds and a method of treating infection using the aminosterol compounds” (priority 1995, dated 1998):
# “Also recorded” adds a separate entry of the source.
# What was measured:
# B16 melanoma = B16 melanoma growth in C57B mice; assay type: in vivo, mouse
# Protocol: The growth of B16 melanoma in C57B mice is dependent upon neovascularization.
# Using the growth of B16 melanoma cells in C57B mice, a recognized model for the evaluation of inhibitors of angiogenesis on the growth of cancers, the effects of subcutaneous, intraperitoneal and oral administration of squalamine were evaluated.
# In this model, there was observed little evidence of metastasis with or without treatment with chemotherapeutic agents.
# Based on the idea that tumor growth involves both the clonal expansion of a malignant cell along with the development of a supporting vascular supply, a combination of compound 1436 with squalamine was tested to determine whether it would achieve a synergistic effect on solid tumor growth. This concept was evaluated in the B16 melanoma model.
# Animals were implanted with B16 melanoma followed by treatment with compound 1436 or 1256 administered in a combined schedule or separately. […] Thus, a combination of these two compounds achieves a therapeutic benefit in tumors dependent on neovascularization that may prevent metastatic spread.
# [1] = test system: human epithelial cell line MCF 10A; experiment: Growth inhibition of epithelial cells in vitro; assay type: cell-based; conditions: 10 μg/ml; absorbance at 600 nm
# B16 = experiment: Cytostatic activity against B16 in culture; assay type: cell-based, murine
# [2] = test system: bacteria, fungi and protozoa; conditions: background; cited from earlier work
# [3] = test system: human coronary artery smooth muscle; experiment: Proliferation of human coronary artery smooth muscle in vitro; assay type: cell-based; conditions: in words (1436: about 11 μg/ml)
# Description: Aminosterols of the invention may also have utility in inhibiting the growth factor mediated proliferation of smooth muscle within the artery. Following coronary angioplasty, reocclusion commonly occurs, secondary to reparative proliferation of the vascular smooth muscle within the wall of the surgically manipulated blood vessel. This process generally takes place over the course of 7-10 days. To evaluate whether an agent could prevent the growth factor mediated proliferation of smooth muscle within the artery, compound 1436 was evaluated in vitro for its effect on the proliferation of human coronary artery smooth muscle. Results for compound 1436 are shown in FIG. 13, and those for squalamine are shown in FIG. 14, with FIG. 15 being a composite logarithmic plot.
# rabbit NHE3 = rabbit NHE3 (Oryctolagus cuniculus, UniProt P26432); conditions: 5 μg/ml squalamine; cells not acid-preloaded
# Protocol: For cells not acid-preloaded, the actual internal pH value was monitored as a function of time following addition of squalamine, with the results depicted in FIG. 1B.
# PS120 fibroblasts transfected with rabbit NHE3 were grown and acid preloaded by exposure to 40 mM NH4 C1 as described above in conjunction with FIGS. 1A and 1B. Internal cellular pH changes expressed as the rate of pH recovery as a function of restored extracellular sodium ion concentration following exposure to 10 μg/ml of the compound were assayed with the fluorescent dye BCECF-AM as described above.
# [4] = Fasting blood glucose in mice; assay type: in vivo, mouse (male CD-1); conditions: 2 x 10 mg/kg i.v. (total 20 mg/kg), 30 min after 2d dose; in H2O (1437, 1256) or D5W (1436)
# Protocol: To study the effect of steroid administrator or the NHE responsible for secretion of insulin, several of the aminosterols from shark liver were administered to fasting mice. Male CD-1 mice were assigned to one of four treatment groups. Whole blood glucose was tested using glucometer (Lifescan Glucometer II and One Touch test strips). Statistical analysis was via one-way analysis of variance (ANOVA) followed by subsequent Bonferonni's t-test.
# [5] = test system: human umbilical venous endothelial cells; experiment: LPS-induced neutrophil adherence to endothelial cells; conditions: squalamine 10, 1.0 or 0.1 μg; three subjects
# Protocol: To determine if squalamine inhibited this particular endothelial cell function, standard adhesion assays were performed as outlined in Gamble et al., J. Imm. […] In these experiments, approximately 2×10^5 human umbilical venous cells (passage 2-6) were plated per well. The cells were grown in serum-free media overnight. For induction, either TNF-α (40 ng/ml) was added to endothelial cells for 6 hours prior to adding neutrophils or LPS (100 ng/ml) was added for 4-6 hours. […] After activation of the endothelial cells, approximately 50×10^6 neutrophils were added per well. The plates were gently rocked for 30 minutes at room temperature, followed by removal of the media and washing in serum-free media three times and then photographing of each well. Experiments to test the effects of squalamine were performed by adding squalamine at 10 μg, 1.0 μg, or 0.1 μg at the time of adding LPS or TNF-α. A second repeat dose of squalamine was added at the time of adding neutrophils. A monoclonal Ab to ICAM-1 was a positive control.
# Xenopus tadpole = conditions: stage 59-60, 10 μg/ml
# [6] = test system: chick embryo vitelline capillaries; experiment: Chick embryo vitelline capillary regression assay; assay type: in vivo; design: key to vascular reactivity (capillary regression): +: Vascular reactivity; 0: No vascular reactivity; +/-: Equivocal reactivity; conditions: for vascular reactivity (capillary regression): 60 min
# Outline: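 Each compound was applied onto 3-day chick embryos in 0.1 ml 15% Ficol 400 in PBS. Regression of vitelline capillaries was scored visually after 60 minutes.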
# [7] = test system: human foreskin fibroblasts; experiment: Growth inhibition of fibroblasts in vitro; assay type: cell-based; conditions: 10 μg/ml; absorbance at 600 nm
# rabbit NHE1 = experiment: pH recovery in PS120 fibroblasts transfected with rabbit NHE1; assay type: cell-based; conditions: 5 μg/ml; acid-preloaded
# Protocol: (§1) PS120 fibroblasts transfected with rabbit or human NHE1 were grown as described above.
# melanoma 1205Lu = experiment: Human melanoma growth in immunocompromised RAG-1 mice; assay type: in vivo, human tumor in RAG-1 mice; conditions: 10, 20, 40 mg/kg/d (FIG. 5)
# Description: As apparent from FIG. 5, melanoma 1205Lu develops aggressively in RAG-1 mice after implantation.
# [8] = test system: bovine pulmonary endothelial cells; experiment: Growth inhibition of endothelial cells in vitro; assay type: cell-based; conditions: 1 μg/ml; absorbance at 600 nm
# human NHE1 = experiment: pH recovery in PS120 fibroblasts transfected with human NHE1; assay type: cell-based; conditions: 5 μg/ml; acid-preloaded
# Protocol: as §1
# chorioallantoic membrane = experiment: Chorioallantoic membrane (CAM) model; assay type: in vivo, chick; conditions: for Percentage positive, Assay 1 / Percentage positive, Assay 2: 3-day embryo, some vascular irritation noted
# Description: The growing capillaries within the chorioallantoic membrane model (CAM model) have been used as a system in which to evaluate the effect of agents on their potential to inhibit new vessel growth. Neovascularization occurs most aggressively over the first week of embryonic development. Thereafter capillary growth is characterized by principally "elongation" rather than "de novo" formation.
# In the standard assay, agents are applied locally to a region of the embryo over which neovascularization will occur. Agents are assessed by their ability to inhibit this process, as evaluated by visual examination about 7 days after application. […] The assay utilized is described in detail in Auerbach et al., Pharm. Ther. 51, 1991, 1-11.
# [9] = test system: PHA-stimulated human lymphocytes; experiment: Inhibition of mitogen (PHA)-stimulated growth of human T-cells; assay type: cell-based; conditions: in words; 10 μg/ml
# Description: Results are tabulated below.
# [10] = test system: human microvascular cells; experiment: Inhibition of endothelial cell cord formation in vitro; assay type: cell-based; conditions: at cord formation-inhibiting concentrations
# Description: Endothelial cells have the capacity in vitro to form tubular aggregates resembling capillaries in various early stages of formation. This conversion occurs under relatively specific conditions, in which essential growth factors along with an effective substratum are provided. It has been shown that both the interaction of growth factors with the endothelial cell and its attachment to a substratum activate the NHE. The activation of this exchanger is believed to be required for subsequent morphologic transformation of the endothelial cell into a multicellular tubular structure.
# To assess the effect of compounds on the cord-like structures formed by human microvascular cells when plated in the presence of VEFG (Vascular Endothelial Growth Factor) and basic fibroblast growth factor on a collagen matrix, a standard cord formation assay was used.
# Sequence of rabbit NHE3 (P26432 30-832): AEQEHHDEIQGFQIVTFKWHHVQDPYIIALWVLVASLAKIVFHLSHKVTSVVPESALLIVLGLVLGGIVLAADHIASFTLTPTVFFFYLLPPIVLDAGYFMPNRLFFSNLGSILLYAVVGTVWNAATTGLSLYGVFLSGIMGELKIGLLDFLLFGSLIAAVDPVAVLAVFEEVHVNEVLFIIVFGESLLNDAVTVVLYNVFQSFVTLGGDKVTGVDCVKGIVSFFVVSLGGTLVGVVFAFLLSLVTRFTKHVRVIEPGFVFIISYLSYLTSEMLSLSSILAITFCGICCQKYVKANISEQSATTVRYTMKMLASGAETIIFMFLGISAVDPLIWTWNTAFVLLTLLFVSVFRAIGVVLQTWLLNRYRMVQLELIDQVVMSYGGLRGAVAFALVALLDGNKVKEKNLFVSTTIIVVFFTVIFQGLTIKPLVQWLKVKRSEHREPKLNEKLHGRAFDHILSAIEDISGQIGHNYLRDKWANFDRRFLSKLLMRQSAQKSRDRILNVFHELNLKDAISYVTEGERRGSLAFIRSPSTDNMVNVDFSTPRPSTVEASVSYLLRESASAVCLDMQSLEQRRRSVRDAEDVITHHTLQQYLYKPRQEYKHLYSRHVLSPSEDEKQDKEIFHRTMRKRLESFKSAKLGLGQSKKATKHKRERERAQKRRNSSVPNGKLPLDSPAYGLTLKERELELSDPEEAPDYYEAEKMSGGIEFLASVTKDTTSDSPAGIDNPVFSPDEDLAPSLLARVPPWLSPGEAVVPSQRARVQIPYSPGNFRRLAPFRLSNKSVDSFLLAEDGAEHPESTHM
smiles,measurement,setting,value
"CC(C)[C@@H](CC[C@@H](C)[C@H]1CC[C@H]2[C@@H]3[C@H](O)C[C@H]4C[C@@H](NCCCNCCCCN)CC[C@]4(C)[C@H]3CC[C@]12C)OS(=O)(=O)O [Squalamine, squalamine]",body weight and hematologic parameters,"B16 melanoma; s.c., i.p. or oral squalamine",no significant depression
same,"effect on B16 tumor volume, single agent and combination","B16 melanoma; squalamine 5 mg/kg/day, compound 1436 10 mg/kg/every 3 days",no significant impact on tumor volume
same,suppression of B16 melanoma tumor growth,"B16 melanoma; squalamine subcutaneous, intraperitoneal, oral",a dose-dependent suppression of tumor volume; also recorded: suppression of the growth of murine melanoma
same,growth inhibition,[1],no effect
same,cytostatic activity against B16,B16,"minimal cytostatic activity against B16 in culture, except at very high concentrations"
same,antibiotic spectrum,[2],"broad-spectrum antibiotic, killing bacteria, fungi and protozoa"
same,growth suppression / viability of smooth muscle cells,[3],suppress in vitro the growth of human coronary artery smooth muscle
same,resting internal pH,rabbit NHE3,the resting pH of these cells was also inhibited
same,Fasting Blood Glucose Mean ± SEM,[4],65 ± 7.3 mg/dL
same,inhibition of neutrophil adherence,[5],no inhibition
same,time to death,Xenopus tadpole,≤ 2 h
same,pharmacological response in tadpole,"Xenopus tadpole; in words, listed as Compound 1256 (Squalamine)",Vascular occlusion in fine capillaries of tail. No effect on vascular flow through hands or feet.
same,vascular reactivity (capillary regression),[6]; 0.001 μg applied,0
same,vascular reactivity (capillary regression),[6]; 0.01 μg applied,+
same,vascular reactivity (capillary regression),[6]; 0.1 μg applied,+
same,vascular reactivity (capillary regression),[6]; 1 μg applied,+
same,vascular reactivity (capillary regression),[6]; 10 μg applied,+
same,effect on chick embryo vessels / blood,[6]; in words,disrupt vitelline capillaries in 3- to 5-day chick embryos
same,effect on chick embryo vessels / blood,"[6]; in words, listed as squalamine",especially active
same,hemorrhage / hemolysis / heartbeat in chick embryo,"[6]; in words, listed as squalamine",No hemorrhage was seen; also recorded: absence of hemolysis; also recorded: The embryonic heart continued to beat vigorously
same,growth inhibition,[7],no effect
same,inhibition of rabbit NHE1,rabbit NHE1,no inhibitory activity; also recorded: lack of inhibition of rabbit sodium/proton exchanger isoform 1 (NHE1)
same,suppression of human melanoma growth,melanoma 1205Lu,suppress the growth of melanoma 1205Lu in RAG-1 mice in a dose-dependent fashion; also recorded: clear suppression of tumor growth in a dose-dependent fashion
same,suppression of human melanoma growth,melanoma 1205Lu; listed as squalamine,"After cessation of treatment, tumor growth continued at a rate similar to untreated controls"
same,growth inhibition,[8],inhibited the growth
same,inhibition of human NHE1,human NHE1,no inhibitory activity; also recorded: lack of inhibition of human NHE1
same,"Percentage positive, Assay 1",chorioallantoic membrane; 20 μg applied,52 Percentage
same,"Percentage positive, Assay 2",chorioallantoic membrane; 20 μg applied,58 Percentage
same,"Percentage positive, Assay 1",chorioallantoic membrane; 40 μg applied,50 Percentage
same,"Percentage positive, Assay 2",chorioallantoic membrane; 40 μg applied,13 Percentage
same,Percentage positive,"chorioallantoic membrane; 13-day embryo, 5.0 μg applied, positive/total",0/26
same,inhibition of blast transformation,[9],Some effect
same,effect on cell viability or proliferation,[10],does not appear to profoundly affect cell viability or proliferation
